Tests used:
Type in all cases: functional, cell-based
K562 = assay: Cytotoxicity against human K562 cells assessed as reduction in cell viability incubated for 72 hrs by SRB assay; conditions: K562, 72 h
HEL = assay: Cytotoxicity against HEL cells assessed as reduction in cell viability incubated for 72 hrs by WST assay; conditions: Homo sapiens
SK-HEP1 = assay: Cytotoxicity against human SK-HEP1 cells assessed as reduction in cell viability incubated for 72 hrs by SRB assay; conditions: SK-HEP1, 72 h
NCI-H1299 = assay: Cytotoxicity against human NCI-H1299 cells assessed as reduction in cell viability incubated for 48 hrs by MTT assay; conditions: NCI-H1299, 48 h
A549/TR = assay: Cytotoxicity against human A549/Taxol cells assessed as reduction in cell viability incubated for 48 hrs by MTT assay
NCI-H1975 = assay: Cytotoxicity against human NCI-H1975 cells assessed as reduction in cell viability incubated for 48 hrs by MTT assay; conditions: NCI-H1975, 48 h
HCT-116 = assay: Cytotoxicity against human HCT-116 cells assessed as reduction in cell viability incubated for 72 hrs by SRB assay; conditions: HCT-116, 72 h
A549 = assay: Cytotoxicity against human A549 cells assessed as reduction in cell viability incubated for 72 hrs by SRB assay; conditions: A549, 72 h
MDA-MB-231 = assay: Cytotoxicity against human MDA-MB-231 cells assessed as reduction in cell viability incubated for 72 hrs by SRB assay; conditions: MDA-MB-231, 72 h
SNU-638 = assay: Cytotoxicity against human SNU-638 cells assessed as reduction in cell viability incubated for 72 hrs by SRB assay; conditions: SNU-638, 72 h

| Structure (SMILES) | IC50 (K562) [nM] | IC50 (HEL) [nM] | IC50 (SK-HEP1) [nM] | IC50 (NCI-H1299) [nM] | IC50 (A549/TR) [nM] | IC50 (NCI-H1975) [nM] | IC50 (HCT-116) [nM] | IC50 (A549) [nM] | IC50 (MDA-MB-231) [nM] | IC50 (SNU-638) [nM] |
| --- | --- | --- | --- | --- | --- | --- | --- | --- | --- | --- |
| CC[C@H](C)[C@@H]1NC(=O)[C@H](Cc2c[nH]c3ccccc23)N(C)C(=O)[C@@H]2CCCNN2C(=O)[C@H](CO)N(C)C(=O)[C@H](CC(C)C)NC(=O)[C@H](Cc2ccccc2)N(C)C(=O)[C@@H](C)NC(=O)[C@H](C(C)C)N(C)C(=O)CCNC(=O)[C@H](C)N(C)C1=O | 200 | 13000 | 200 | 11000 | 19000 | 8000 | 200 | 200 | 200 | 200 |
| COc1cc([C@@H]2c3cc4c(cc3[C@@H](O[C@@H]3O[C@@H]5CO[C@@H](C)O[C@H]5[C@H](O)[C@H]3O)[C@H]3COC(=O)[C@H]23)OCO4)cc(OC)c1O [ETOPOSIDE] | 400 | – | 400 | – | – | – | 400 | 400 | 400 | 400 |
| CC(C)C[C@@H]1NC(=O)[C@H](Cc2ccccc2)N(C)C(=O)[C@@H](C)NC(=O)[C@H](C(C)C)N(C)C(=O)CCNC(=O)[C@H](C)N(C)C(=O)[C@H](C(C)C)NC(=O)[C@H](Cc2c[nH]c3ccccc23)N(C)C(=O)[C@@H]2CCCNN2C(=O)[C@H](CO)N(C)C1=O | – | 14000 | – | 11000 | 17000 | 24000 | – | – | – | – |
| COc1cccc2c1C(=O)c1c(O)c3c(c(O)c1C2=O)C[C@@](O)(C(=O)CO)C[C@@H]3O[C@H]1C[C@H](N)[C@H](O)[C@H](C)O1 [DOXORUBICIN] | – | 50 | – | 1400 | 1600 | 120 | – | – | – | – |

— ChEMBL document CHEMBL5370581, “NMR-Metabolomic Profiling and Genome Mining Drive the Discovery of Cyclic Decapeptides from a Marine Streptomyces” (J Nat Prod, 2023)
